Test results taken from US11186534B2, “Derivatives of sulindac can protect normal cells against oxidative damage” (University of South Alabama, priority 2017, dated 2021).
pIC50: −log10 of the molar value.

Key:
PDE10 = PDE10 (Homo sapiens, UniProt Q9Y233); assay: IMAP fluorescence polarization PDE assay, PDE10; format: biochemical; conditions: FIG. 5B
Experimental: PDE activity was measured using the IMAP fluorescence polarization PDE assay (Molecular Devices) in which the binding of hydrolyzed fluorescent cyclic nucleotide substrate to the IMAP reagent increases fluorescence polarization. Each well of a 96-well nonbinding plate contained 0.25 mg/mL of recombinant enzyme preparations. Enzymes were incubated with COMPOUND 9 or vehicle (DMSO) for 30 min at 30° C. before the addition of a substrate mixture containing 25 nmol/L of fluorescein-cGMP. The DMSO final concentration for each experiment was 2%. After 90 min of incubation at 30° C., the reaction was terminated by the addition of binding reagent. The maximum Fluorescence polarization was measured using a Synergy4 (BioTek) plate reader.

[1] = system: rat intact hearts (Langendorff model); assay: Langendorff model of ischemia/reperfusion injury, LDH release; format: in vivo, Sprague Dawley rats
Experimental: (§1) The ex vivo Langendorff procedure is a well-established preparation used to investigate heart physiology, ischemia/reperfusion injury, and other cardiovascular insults (23, 24; also see, e.g., reference 22). Sprague Dawley rats (275-325g) were administered either no drug or Compound 9 daily (at 0.7 mg/kg) for a total of two days (two administrations in total). Forty-eight hours after the start of drug exposure, hearts were removed and exposed to 45 min no flow ischemia and 2 h reperfusion in the Langendorff model (hearts were first equilibrated in KHB buffer for 10 min and then subjected to 45 min ischemia followed by 2 h reperfusion with KHB buffer), in the absence of drug.
In LDH and TTC assays for the Langendorff Preparation, coronary effluent samples (500 μL) from the Langendorff preparation were obtained upon attachment of excised heart, every 15 min before ischemia, immediately after 45 min ischemia, and at 15 min intervals during reperfusion. LDH was measured (using a Cytotox-96 nonradioactive cytotoxicity assay kit (Promega), with the absorbance read at 490 nm). Immediately upon completion, the heart was sliced into 2-mm cross-sectional pieces and slices were incubated for 30 min with 1% 2,3,5-triphenyl tetrazolium chloride (TTC) stain in Krebs-Henseleit buffer (KHB) (pH=7.4) at 37° C. to distinguish between viable (red) and nonviable (white) tissue. Tissue slices were stored overnight in 10% formaldehyde before measurement of infarct size using NIH-Image J software.
The protective (preconditioning) effect of Compound 9 was evaluated in an art-recognized Langendorff model of ischemia/reperfusion injury. Compound 9 was administered via i.p. injection to test animals daily for two days, and animal hearts were then removed for performance of the Langendorff procedure (described above and known in the art).

[2] = system: Retinal pigmented epithelium cells (ARPE-19); assay: Cell viability assay: protection of RPE cells against oxidative damage from TBHP; format: cell-based
Experimental: Cultured cells and reagents: Retinal pigmented epithelium cells (ARPE-19) were obtained from American Type Culture Collection (ATCC, Manassas, Va.) and cultured at 37° C. in 5% CO2. All chemicals were purchased from Sigma unless specified.
Cell viability assay: Cells were cultured and assayed for cell viability essentially as described previously (14). ARPE-19 cells were plated at 10,000 cells per well in a 96-well plate. The cells were grown for 18-20 hours, the medium discarded in aseptic conditions and replaced with fresh culture medium containing the indicated drug concentration. The plates were incubated for 24 hours at 37° C. in a 5% CO2 incubator in the presence of sulindac or Compound 9. To examine the treatment effects on oxidative damage to RPE cells, cells were washed and incubated in media without serum with various concentrations of tert-butyl hydroperoxide (TBHP) for an additional 24h. The culture medium was then discarded and the cells were thoroughly rinsed in PBS. Cell viability was determined by using the Cell Titer 96 Aqueous One Cell Proliferation Assay (Promega) according to the manufacturer's instructions. The assay utilizes a tetrazolium compound that is converted into a water-soluble formazan by the action of cellular NADH oxidase activity in metabolically active cells. The formazan was quantified by measuring the absorbance at 490 nm using a colorimetric microtiter plate reader (SpectraMax Plus; Molecular Devices).
In the present studies, a series of compounds were identified as having the ability to protect RPE cells against oxidative damage using tert-butyl hydroperoxide (TBHP), an organic peroxide, as an oxidizing agent (10).

[3] = system: rat intact hearts (Langendorff model); assay: Langendorff model of ischemia/reperfusion injury, infarct size by TTC staining; format: in vivo, Sprague Dawley rats; conditions: 45 min ischemia and 2 h reperfusion; 0.7 mg/kg daily for 48 h; FIG. 8
Experimental: as §1
In LDH and TTC assays for the Langendorff Preparation, coronary effluent samples (500 μL) from the Langendorff preparation were obtained upon attachment of excised heart, every 15 min before ischemia, immediately after 45 min ischemia, and at 15 min intervals during reperfusion. LDH was measured (using a Cytotox-96 nonradioactive cytotoxicity assay kit (Promega), with the absorbance read at 490 nm). […]
The protective (preconditioning) effect of Compound 9 was evaluated in an art-recognized Langendorff model of ischemia/reperfusion injury. […]

[4] = 0.7 mg/kg i.p. daily for 48 h, FIG. 9

Chain of PDE10 (Q9Y233 whole entry): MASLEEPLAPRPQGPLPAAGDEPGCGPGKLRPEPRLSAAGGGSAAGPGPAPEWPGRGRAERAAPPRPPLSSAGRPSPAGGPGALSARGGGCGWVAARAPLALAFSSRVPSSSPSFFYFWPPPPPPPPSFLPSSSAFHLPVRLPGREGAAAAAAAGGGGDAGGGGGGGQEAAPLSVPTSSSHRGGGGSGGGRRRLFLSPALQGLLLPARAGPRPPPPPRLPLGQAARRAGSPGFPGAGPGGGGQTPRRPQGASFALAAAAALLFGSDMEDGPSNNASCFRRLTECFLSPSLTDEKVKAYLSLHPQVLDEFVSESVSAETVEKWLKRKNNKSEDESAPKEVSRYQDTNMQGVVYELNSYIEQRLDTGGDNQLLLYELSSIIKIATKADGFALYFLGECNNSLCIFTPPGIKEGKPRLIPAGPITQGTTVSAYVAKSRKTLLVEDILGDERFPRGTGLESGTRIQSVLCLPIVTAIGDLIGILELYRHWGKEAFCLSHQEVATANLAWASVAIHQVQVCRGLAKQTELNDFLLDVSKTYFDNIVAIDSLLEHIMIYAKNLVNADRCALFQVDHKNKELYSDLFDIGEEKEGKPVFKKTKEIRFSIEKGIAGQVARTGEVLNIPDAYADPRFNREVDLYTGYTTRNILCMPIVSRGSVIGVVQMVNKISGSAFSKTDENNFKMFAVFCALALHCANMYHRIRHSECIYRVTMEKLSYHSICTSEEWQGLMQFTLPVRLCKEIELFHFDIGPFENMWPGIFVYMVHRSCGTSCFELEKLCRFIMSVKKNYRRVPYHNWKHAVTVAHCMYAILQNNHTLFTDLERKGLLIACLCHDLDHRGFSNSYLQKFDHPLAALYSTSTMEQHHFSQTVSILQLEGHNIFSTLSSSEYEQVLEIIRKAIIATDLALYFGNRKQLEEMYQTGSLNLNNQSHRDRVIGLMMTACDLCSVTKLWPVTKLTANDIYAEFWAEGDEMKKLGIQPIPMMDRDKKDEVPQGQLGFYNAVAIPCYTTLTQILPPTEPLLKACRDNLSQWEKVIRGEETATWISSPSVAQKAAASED

## COc1cc2c(cc1OC)/C(=C\c1cc(OC)c(OC)c(OC)c1)C(C)=C2CC(=O)O [Compound 9, (Z)-2-(5,6-dimethoxy-2-methyl-1-(3,4,5-trimethoxybenzylidene)-1H-inden-3-yl)acetic acid]
PDE10
  pIC50: ~5.15
[1]; [4]
  Protective effect during the 45 min ischemia phase: robust protective effect
  Protective effect during the 2 h reperfusion phase: robust protective effect
[1]; 2 h reperfusion, 0.7 mg/kg daily for 48 h, FIG. 7
  LDH levels vs no drug control: decrease in LDH levels
[1]; after 45 min no flow ischemia, 0.7 mg/kg daily for 48 h, FIG. 7
  Levels of LDH released vs no drug: significantly lower
[2]; RPE cells, TBHP as oxidizing agent, relative to Sulindac
  Cyto-protective activity*: active
[2]; Rp-Br-8-PET-cGMPS 500 μM, 24 h, FIG. 6C
  Protective effect on RPE cells in combination with PKG inhibitor Rp-Br-8-PET-cGMPS: reduces the protection
[2]; TBHP, FIG. 3
  Lowest concentration found effective in protecting RPE cells: 10 µM
[2]; chelerythrine 2 μM, 24 h, FIG. 6B
  Protective effect on RPE cells in combination with PKC inhibitor chelerythrine: significantly reduces the protective effect
[2]; compound at 25 μM, FIG. 2
  TBHP concentration up to which complete protection of RPE cells was provided: ≤ 400 µM
[2]; on a molar basis, stated as 'may be'
  Times more active than sulindac in protecting RPE cells and other cells from oxidative damage: at least 10 times
[2]; sulindac 200 μM, Compound 10 at 25 μM, Compound 9 at 10 μM
  Fold lower effective concentration relative to sulindac (RPE cell protection): 20 ×
[2]; tiron 1 mM, 24 h, FIG. 6A
  Protective effect on RPE cells in combination with ROS scavenger tiron: attenuates the protective effect
[3]
  Infarction size (percent of heart infarcted, TTC staining): below 20%
